Read-outs that look alike come from different tables or passages of the source.
How the values were obtained:
in vitro = conditions: human, skin fibroblasts
Description: (§1) The following examples are offered to illustrate the practice of the present invention. It is important to note that this invention is not limited to any particular transdermal device or other form of transdermal delivery, as are commonly known in the art. Nor is this invention limited to a particular formulation. Therefore, the embodiments described herein are merely illustrative and are not intended to limit the scope of the invention in any manner.
(§2) Four beta-adrenergic blocking drugs (propranolol, labetalol, pindolol and timolol) were tested for their uptake and their toxicity in human skin fibroblasts.
(§3) To estimate the toxicity of the tested compounds, the general procedure of the MTT assay (Swisher et al., Models Dermatol., Maibach and Lowe (eds.), Basel, Karger, vol. 4, pp 131-137, 1989) was used. Cell cultures of fibroblasts were incubated for 16 hours in medium containing a range of concentrations of the drug being tested. At the end of the incubation time, the medium was removed and replaced with medium containing MTT at 0.5 mg/ml. After 3 hours, this medium was discarded and the blue formazan, a metabolite of MTT produced only by viable cells, was dissolved in acidified isopropanol. Absorbance of this solution was measured at 540 nm against a reference wavelength of 660 nm. Results were then expressed as percent of control cultures incubated in the same conditions without drug or agent.
(§4) The treated cells were also tested for the cytotoxic effect of propranolol in the presence of various concentrations of monensin, following the procedures of Example 1.
(§5) They were tested with 10^-6 M monensin.
(§6) In the Table, the "factor of protection" is the ratio of the ID50 of the toxic drug incubated with monensin to the ID50 of the toxic drug alone.
(§7) The action of various ionophores and amphiphilic amines on the cytotoxicity of propranolol and chloroquine was determined, following the procedures of Example 1. The "factor of protection" corresponds to the ratio of the ID50 of the toxic drug incubated with uptake-inhibiting agent at the indicated concentration, to the ID50 of the toxic drug alone. The "mode of action" indicates either the ions which are preferentially carried by the tested ionophores or that the agent acts by competition.

human skin fibroblasts [1] = test: in vitro
Description: as §1, §2, §3, §4, §5, §6, §7

lysosomes = conditions: literature; cited from earlier work
[2] = In vitro permeation through human epidermis from gels; format: in vitro ADME; conditions: gels of Example 5; 37° C.; sampled at 3, 8 and 24 hours
Description: Circular pieces of human epidermis were mounted in horizontal permeation cells (1.13 cm^2 of effective permeating surface) with the stratum corneum facing the donor compartment of the cell. A known volume (20-23 ml) of 0.2M TRIS buffer pH 7.5 (the receptor solution) was placed in the receptor compartment. The cell was then placed in a water bath-shaker at 37° C. and allowed to equilibrate. A 0.2 ml aliquot of the tested formulation was transferred to the donor compartment. Occlusion was achieved by the use of a teflon film in contact with the formulation. At 3, 8 and 24 hours, the receptor solutions were removed and replaced with equal volumes of fresh receptor solution previously equilibrated at 37° C. Chloroquine was quantified in the samples by fluorometrical measurements. These were carried out at room temperature in a Perkin-ElmerLS-5B luminescence spectrometer. The samples were adjusted to pH 8.65 at a final TRIS concentration of 0.1M and 30% (vol/vol) ethanol. The excitation wavelength was 333 nm and the emission wavelength was 382 nm. Chloroquine concentrations were extrapolated by comparison with a standard curve obtained under the same conditions. […] For each formulation condition, eight permeation cells were used. Results are presented as the means with their associated standard error.

human skin fibroblasts [3] = test: Uptake/accumulation of radiolabelled drug in fibroblasts, 16 h incubation; format: cell-based
Description: For the uptake studies, cell cultures of fibroblasts were exposed to medium containing the radioactive-labelled drug and incubated for 16 hours. The uptake process was then stopped by removing the medium and rapidly washing the cells with cold PBS three times. The cells were then extracted with methanol which was transferred to counting vials, and the amount of radioactivity was measured by liquid scintillation. To compensate for non-specific binding to the plastic of the wells, wells containing no cells were incubated with the radiolabelled drugs under the same conditions. The radioactive content of those wells was taken as the control value and substracted form the radioactive content of the wells containing cells.
Fibroblast cell cultures were incubated for 16 hours in propranolol (2×10^-7 M) with various concentrations of monensin. The accumulation of propranolol in the cells was then determined, following the procedures of Example 1. […] At 10^-5 M monensin, propranolol uptake was negligible even though the cells were fully viable.

[4] = tested on: skin irritation (erythema), volar forearm; test: In vivo skin irritation (erythema, Minolta Chromameter) after 16 h application of gel to volar forearm; set-up: species or system human; conditions: monensin 5.0 wt % with chloroquine 1.0 wt % gel
Description: The resulting gels were buffered to pH 8.5 with EPPS buffer and contained 30 wt % ethanol to maintain the solubility of the drug.
All of the gels were placed in such manner. After 16 hours, each cup was removed and the site was washed. At various times thereafter the sites were observed and the intensity of the irritant reaction (the erythema) was scored by measuring skin color with an electronic instrument, the Minolta Chromameter.

[5] = against chloroquine cytotoxicity, agent 10^-2 M
[6] = against chloroquine cytotoxicity, agent 10^-5 M
[7] = against propranolol cytotoxicity, agent 10^-5 M

CCN(CC)CCCC(C)Nc1c2ccc(Cl)cc2nc2ccc(OC)cc12 (stereo not shown) [Quinacrine]
CC50 at 16 h (in vitro; ID50 (M), Drug + Monensin): 4.2e-05 M | CC50 at 16 h (in vitro; ID50 (M), Drug Alone): 1.3e-05 M | Factor of Protection (ID50 with monensin / ID50 alone) (human skin fibroblasts [1]): 3.2

CCNCC [Diethylamine]
Factor of Protection, Chloroquine (ID50 with agent / ID50 alone) (human skin fibroblasts [1]; [5]): 3.3

C1COCCOCCOCCOCCO1 [15-Crown-5]
Factor of Protection, Chloroquine (ID50 with agent / ID50 alone) (human skin fibroblasts [1]): 1 | Factor of Protection, Propranolol (ID50 with agent / ID50 alone) (human skin fibroblasts [1]): 1

N#CC(C#N)=NNc1cccc(Cl)c1 [Carbonyl cyanide m-chlorophenylhydrazone, carbonyl cyanide m-chlorophenylhydrazone]
Factor of Protection, Chloroquine (ID50 with agent / ID50 alone) (human skin fibroblasts [1]; [6]): 13 | Factor of Protection, Propranolol (ID50 with agent / ID50 alone) (human skin fibroblasts [1]; [7]): 1

CNc1ccc2oc(C[C@H]3O[C@@]4(CC[C@H]3C)O[C@H]([C@H](C)C(=O)c3ccc[nH]3)[C@H](C)C[C@H]4C)nc2c1C(=O)O [A23187]
Factor of Protection, Chloroquine (ID50 with agent / ID50 alone) (human skin fibroblasts [1]; against chloroquine cytotoxicity, agent 10^-6 M): 11 | Factor of Protection, Propranolol (ID50 with agent / ID50 alone) (human skin fibroblasts [1]; against propranolol cytotoxicity, agent 10^-6 M): 1

CC(C)NCC(O)COc1cccc2ccccc12 (stereo not shown) [Propranolol, propranolol]
CC50 at 16 h (in vitro; ID50 (concentration of drug required to kill 50% of the cells), drug alone): 0.00028 M | CC50 at 16 h (in vitro; ID50 (concentration of drug required to kill 50% of the cells), drug with monensin): 0.00038 M | Factor of Protection, Chloroquine (ID50 with agent / ID50 alone) (human skin fibroblasts [1]): 1.8 | Accumulation in lysosomes (lysosomes): have been shown to accumulate in lysosomes

Gramicidin D
Factor of Protection, Chloroquine (ID50 with agent / ID50 alone) (human skin fibroblasts [1]; [6]): 31 | Factor of Protection, Propranolol (ID50 with agent / ID50 alone) (human skin fibroblasts [1]; [7]): 1

NC(CO)(CO)CO [Tromethamine]
Factor of Protection, Chloroquine (ID50 with agent / ID50 alone) (human skin fibroblasts [1]): 1.2

CC(C)N [Isopropylamine]
Factor of Protection, Chloroquine (ID50 with agent / ID50 alone) (human skin fibroblasts [1]; [5]): 6.2

CN1CCC[C@@H]1CCO[C@](C)(c1ccccc1)c1ccc(Cl)cc1 [Clemastine]
Factor of Protection (ID50 with monensin / ID50 alone) (human skin fibroblasts [1]): 1.2

CN(C)CCCN1c2ccccc2CCc2ccccc21 [Imipramine]
CC50 at 16 h (in vitro; ID50 (M), Drug + Monensin): 0.00027 M | CC50 at 16 h (in vitro; ID50 (M), Drug Alone): 0.00019 M | Factor of Protection (ID50 with monensin / ID50 alone) (human skin fibroblasts [1]): 1.4

CCN(CC)CCCC(C)Nc1ccnc2cc(Cl)ccc12 (stereo not shown) [Chloroquine, chloroquine]
CC50 at 16 h (in vitro; ID50 (M), Drug + Monensin): 0.0007 M | CC50 at 16 h (in vitro; ID50 (M), Drug Alone): 7e-05 M | Factor of Protection (ID50 with monensin / ID50 alone) (human skin fibroblasts [1]): 10.0 | Factor of Protection, Propranolol (ID50 with agent / ID50 alone) (human skin fibroblasts [1]): 1 | Permeation through human epidermis with versus without ammonium chloride [2]: the same | Accumulation in lysosomes (lysosomes): have been shown to accumulate in lysosomes

Oc1ccc2ccccc2c1-c1c(O)ccc2ccccc12 [(R)(+)-1,1'-bi-2-Naphthol, (R)(+)-1,1'-bi-2-naphthol]
Factor of Protection, Chloroquine (ID50 with agent / ID50 alone) (human skin fibroblasts [1]; against chloroquine cytotoxicity, agent 3.5 × 10^-5 M): 2.9

C[C@@H]1C[C@H]2CC[C@H](O2)[C@H](C)C(=O)O[C@@H](C)C[C@@H]2CC[C@@H](O2)[C@@H](C)C(=O)O[C@H](C)C[C@H]2CC[C@H](O2)[C@H](C)C(=O)O[C@@H](C)C[C@@H]2CC[C@@H](O2)[C@@H](C)C(=O)O1 [Nonactin]
Factor of Protection, Chloroquine (ID50 with agent / ID50 alone) (human skin fibroblasts [1]; against chloroquine cytotoxicity, agent 5 × 10^-6 M): 26 | Factor of Protection, Propranolol (ID50 with agent / ID50 alone) (human skin fibroblasts [1]; against propranolol cytotoxicity, agent 5 × 10^-6 M): 1

OCCNCCO [Diethanolamine]
Factor of Protection, Chloroquine (ID50 with agent / ID50 alone) (human skin fibroblasts [1]): 1.5

CO[C@@H]1C[C@@H](C[C@H]2CC[C@H](C)[C@H]([C@@H](C)C(=O)O)O2)O[C@]2(O[C@](C)([C@H]3CC[C@@](C)([C@@H]4O[C@@H]([C@H]5O[C@@](O)(CO)[C@H](C)C[C@@H]5C)C[C@@H]4C)O3)C[C@H]2C)[C@@H]1C [Nigericin]
Factor of Protection, Chloroquine (ID50 with agent / ID50 alone) (human skin fibroblasts [1]; against chloroquine cytotoxicity, agent 1.5 × 10^-7 M): 11

CC(C)[C@@H]1NC(=O)[C@H](C)OC(=O)[C@@H](C(C)C)NC(=O)[C@@H](C(C)C)OC(=O)[C@H](C(C)C)NC(=O)[C@H](C)OC(=O)[C@@H](C(C)C)NC(=O)[C@@H](C(C)C)OC(=O)[C@H](C(C)C)NC(=O)[C@H](C)OC(=O)[C@@H](C(C)C)NC(=O)[C@@H](C(C)C)OC1=O [Valinomycin]
Factor of Protection, Chloroquine (ID50 with agent / ID50 alone) (human skin fibroblasts [1]; [6]): 13 | Factor of Protection, Propranolol (ID50 with agent / ID50 alone) (human skin fibroblasts [1]; [7]): 1

CN(C)CCCN1c2ccccc2Sc2ccc(Cl)cc21 [Chlorpromazine]
CC50 at 16 h (in vitro; ID50 (M), Drug + Monensin, Table A, with 10^-6 M monensin, 16 h): 1.6e-05 M | CC50 at 16 h (in vitro; ID50 (M), Drug Alone, Table A, 16 h): 1e-05 M | Factor of Protection (ID50 with monensin / ID50 alone) (human skin fibroblasts [1]): 1.6

CC[C@@]1([C@@H]2O[C@@H]([C@H]3O[C@@](O)(CO)[C@H](C)C[C@@H]3C)C[C@@H]2C)CC[C@H]([C@]2(C)CC[C@]3(C[C@H](O)[C@@H](C)[C@@H]([C@@H](C)[C@@H](OC)[C@H](C)C(=O)O)O3)O2)O1 [Monensin, monensin]
Effect of monensin on toxicity of five weak base drugs (human skin fibroblasts [1]; 10^-6 M monensin, clemastine, imipramine, chlorpromazine, quinacrine, chloroquine): reduced the toxicity of all the drugs | Factor of Protection, Chloroquine (ID50 with agent / ID50 alone) (human skin fibroblasts [1]; [6]): 19 | Factor of Protection, Propranolol (ID50 with agent / ID50 alone) (human skin fibroblasts [1]; against propranolol cytotoxicity, agent 10^-5 M, pre-treatment of 2 hours with agent): 1.41 | Effect of monensin on propranolol toxicity (human skin fibroblasts [1]; monensin 10^-8 M to 10^-5 M): dose-dependent decrease of propranolol toxicity | Propranolol uptake at 10^-5 M monensin (human skin fibroblasts [3]; propranolol 2×10^-7 M, monensin 10^-5 M): negligible | Effect of monensin on propranolol uptake in the cells (human skin fibroblasts [3]; propranolol 2×10^-7 M, monensin 10^-8 M to 10^-5 M): decreased propranolol uptake in the cells in a dose-dependent manner | Viability of cells at 10^-5 M monensin (human skin fibroblasts [3]; with propranolol 2×10^-7 M, monensin 10^-5 M): fully viable | Effect of monensin on irritant reaction (erythema) [4]: reduced the irritant reaction

Ammonium chloride
Factor of Protection, Chloroquine (ID50 with agent / ID50 alone) (human skin fibroblasts [1]; against chloroquine cytotoxicity, agent 4 × 10^-2 M): 26 | Factor of Protection, Propranolol (ID50 with agent / ID50 alone) (human skin fibroblasts [1]; against propranolol cytotoxicity, agent 4 × 10^-2 M, pre-treatment of 2 hours with agent): 1.3

NCCO [Ethanolamine]
Factor of Protection, Chloroquine (ID50 with agent / ID50 alone) (human skin fibroblasts [1]): 6.4
